Key:
[1] = target: T1, Human Calpain 9/NS1 (Homo sapiens, UniProt O14815); assay: Calpain inhibition continuous fluorescence (FRET) assay, Human Calpain 9/NS1; type: biochemical; conditions: read-out: Human Calpain 9/NS1 IC50
T1 sequence (O14815 1-690): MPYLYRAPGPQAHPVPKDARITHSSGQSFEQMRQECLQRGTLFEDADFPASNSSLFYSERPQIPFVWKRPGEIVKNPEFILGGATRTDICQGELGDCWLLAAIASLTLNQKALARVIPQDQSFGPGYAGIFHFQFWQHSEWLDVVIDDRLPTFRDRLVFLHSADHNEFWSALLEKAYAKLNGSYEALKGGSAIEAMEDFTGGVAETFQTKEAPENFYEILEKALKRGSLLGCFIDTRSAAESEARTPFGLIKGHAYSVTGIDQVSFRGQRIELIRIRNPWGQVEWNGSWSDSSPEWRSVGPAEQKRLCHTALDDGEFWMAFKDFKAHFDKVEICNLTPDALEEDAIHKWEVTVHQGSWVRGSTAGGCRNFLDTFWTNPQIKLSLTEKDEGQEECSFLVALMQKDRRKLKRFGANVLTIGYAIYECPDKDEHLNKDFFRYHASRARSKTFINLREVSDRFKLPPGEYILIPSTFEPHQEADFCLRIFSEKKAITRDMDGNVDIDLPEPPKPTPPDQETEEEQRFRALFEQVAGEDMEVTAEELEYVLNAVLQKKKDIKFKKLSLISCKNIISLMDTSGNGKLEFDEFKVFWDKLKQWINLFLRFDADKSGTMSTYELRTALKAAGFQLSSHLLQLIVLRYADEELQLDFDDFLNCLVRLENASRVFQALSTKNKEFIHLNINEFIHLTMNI
T1 sequence (P04632 1-268 partner): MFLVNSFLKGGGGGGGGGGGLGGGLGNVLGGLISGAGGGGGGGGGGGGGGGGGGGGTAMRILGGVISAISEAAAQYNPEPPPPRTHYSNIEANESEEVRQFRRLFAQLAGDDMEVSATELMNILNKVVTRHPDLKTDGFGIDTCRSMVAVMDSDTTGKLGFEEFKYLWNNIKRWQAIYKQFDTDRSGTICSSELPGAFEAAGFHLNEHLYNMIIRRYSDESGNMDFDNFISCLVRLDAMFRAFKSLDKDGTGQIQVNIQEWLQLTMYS
Summary of the method: (§1)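 Inhibitors were preincubated with calpain in 50 mM Tris pH 7.5, 100 mM NaCl, 1 mM DTT at 25C. Reactions were started with 5-FAM/QXL 520 FRET peptide substrate plus CaCl2 and read at 490/520 nm for 10 min. IC50s came from 4-parameter fits of slope rates (1-5 min).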

[2] = system: Calpain activity in SH-SY5Y cells; assay: SH-SY5Y + AMC fluorescence assay (Suc-LLVY-AMC substrate); type: cell-based; conditions: read-out: SH-SY5Y + AMC IC50
[3] = target: T2, Human Calpain 1/NS1 (Homo sapiens, UniProt P07384); assay: Calpain inhibition continuous fluorescence (FRET) assay, Human Calpain 1/NS1; type: biochemical; conditions: read-out: Human Calpain 1/NS1 IC50
T2 sequence (P07384 1-714): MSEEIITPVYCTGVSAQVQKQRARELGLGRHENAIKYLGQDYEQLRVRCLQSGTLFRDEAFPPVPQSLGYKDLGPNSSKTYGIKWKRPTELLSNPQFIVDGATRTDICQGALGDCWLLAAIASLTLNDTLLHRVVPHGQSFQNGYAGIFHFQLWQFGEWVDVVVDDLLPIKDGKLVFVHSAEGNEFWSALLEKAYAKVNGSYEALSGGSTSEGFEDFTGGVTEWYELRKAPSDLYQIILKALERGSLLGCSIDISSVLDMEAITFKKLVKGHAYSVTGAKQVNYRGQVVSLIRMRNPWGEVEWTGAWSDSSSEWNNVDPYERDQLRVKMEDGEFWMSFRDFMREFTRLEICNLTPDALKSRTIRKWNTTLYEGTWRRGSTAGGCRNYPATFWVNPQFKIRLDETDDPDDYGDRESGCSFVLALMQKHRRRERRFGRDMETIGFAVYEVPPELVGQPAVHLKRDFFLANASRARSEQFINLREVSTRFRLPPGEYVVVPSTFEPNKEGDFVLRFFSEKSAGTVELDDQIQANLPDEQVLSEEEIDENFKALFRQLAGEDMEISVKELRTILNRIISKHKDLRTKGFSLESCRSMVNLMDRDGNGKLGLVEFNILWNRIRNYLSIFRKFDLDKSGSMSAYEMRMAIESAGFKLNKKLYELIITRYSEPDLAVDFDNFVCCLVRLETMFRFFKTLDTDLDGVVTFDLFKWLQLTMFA
T2 sequence (P04632 1-268 partner): T1 sequence (P04632 1-268 partner)
Summary of the method: as §1

[4] = target: T3, Human Calpain 2/NS1 (Homo sapiens, UniProt P17655); assay: Calpain inhibition continuous fluorescence (FRET) assay, Human Calpain 2/NS1; type: biochemical; conditions: read-out: Human Calpain 2/NS1 IC50
T3 sequence (P17655 1-700): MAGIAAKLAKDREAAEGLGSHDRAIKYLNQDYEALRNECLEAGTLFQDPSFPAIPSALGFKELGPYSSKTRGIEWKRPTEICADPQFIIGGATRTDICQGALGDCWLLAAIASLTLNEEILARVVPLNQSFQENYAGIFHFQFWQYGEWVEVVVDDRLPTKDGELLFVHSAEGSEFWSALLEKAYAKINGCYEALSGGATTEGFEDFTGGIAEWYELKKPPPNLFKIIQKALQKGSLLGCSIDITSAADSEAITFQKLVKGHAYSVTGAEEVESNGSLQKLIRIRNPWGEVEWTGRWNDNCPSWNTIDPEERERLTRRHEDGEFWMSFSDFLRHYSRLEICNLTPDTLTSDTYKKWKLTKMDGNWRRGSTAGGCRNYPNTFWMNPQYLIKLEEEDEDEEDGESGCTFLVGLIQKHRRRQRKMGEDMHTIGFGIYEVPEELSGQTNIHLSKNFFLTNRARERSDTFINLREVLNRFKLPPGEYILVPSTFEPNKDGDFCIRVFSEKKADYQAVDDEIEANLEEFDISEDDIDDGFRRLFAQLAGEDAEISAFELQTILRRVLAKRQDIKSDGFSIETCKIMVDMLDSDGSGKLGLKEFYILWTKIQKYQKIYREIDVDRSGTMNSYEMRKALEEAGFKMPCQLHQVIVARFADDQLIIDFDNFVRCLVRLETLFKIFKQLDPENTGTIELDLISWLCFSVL
T3 sequence (P04632 1-268 partner): T1 sequence (P04632 1-268 partner)
Summary of the method: as §1

[5] = system: Calpain activity in SH-SY5Y cells (SBDP-150); assay: SH-SY5Y Spectrin western blot assay (SBDP-150 breakdown product, A23187-induced); type: cell-based; conditions: Homo sapiens; SH-SY5Y cells, A23187-induced SBDP-150, western blot; read-out: SH-SY5Y Spectrin IC50

| SMILES | IC50 [1] | IC50 [2] | IC50 [3] | IC50 [4] | IC50 [5] |
| --- | --- | --- | --- | --- | --- |
| CCn1cc(C(=O)NC(Cc2ccccc2)C(=O)C(N)=O)c(-c2ccc(F)cc2)n1 (stereo not drawn) [Compound 471, N-(4-amino-3,4-dioxo-1-phenylbutan-2-yl)-1-ethyl-3-(4-fluorophenyl)-1H-pyrazole-4-carboxamide] | < 3 µM | 10 to 25 µM | < 3 µM | < 3 µM | 10 to 25 µM |
| CC(C)n1cc(C(=O)NC(Cc2ccccc2)C(=O)C(N)=O)c(-c2ccccc2F)n1 (stereo not drawn) [Compound 472, N-(4-amino-3,4-dioxo-1-phenylbutan-2-yl)-3-(2-fluorophenyl)-1-isopropyl-1H-pyrazole-4-carboxamide] | < 3 µM | < 10 µM | < 3 µM | < 3 µM | 10 to 25 µM |
| CC(C)n1cc(C(=O)NC(Cc2ccccc2)C(=O)C(N)=O)c(-c2ccc(F)cc2)n1 (stereo not drawn) [Compound 474, N-(4-amino-3,4-dioxo-1-phenylbutan-2-yl)-3-(4-fluorophenyl)-1-isopropyl-1H-pyrazole-4-carboxamide] | < 3 µM | 10 to 25 µM | < 3 µM | < 3 µM | 10 to 25 µM |
| Cc1nc(-c2ccccc2)c(C(=O)N[C@@H](Cc2ccccc2)C(=O)CF)o1 [Compound 475, (S)—N-(4-fluoro-3-oxo-1-phenylbutan-2-yl)-2-methyl-4-phenyloxazole-5-carboxamide] | 3 to 10 µM | > 25 µM | 3 to 10 µM | < 3 µM | < 10 µM |
| Cn1cc(C(=O)N[C@@H](Cc2ccccc2)C(=O)CF)c(-c2ccccc2)n1 [Compound 476, (S)—N-(4-fluoro-3-oxo-1-phenylbutan-2-yl)-1-methyl-3-phenyl-1H-pyrazole-4-carboxamide] | < 3 µM | > 25 µM | < 3 µM | < 3 µM | 10 to 25 µM |
| Cc1cc(C(=O)N[C@@H](Cc2ccccc2)C(=O)CF)n(-c2ccccc2)n1 [Compound 479, (S)—N-(4-fluoro-3-oxo-1-phenylbutan-2-yl)-3-methyl-1-phenyl-1H-pyrazole-5-carboxamide] | < 3 µM | > 25 µM | < 3 µM | < 3 µM | 10 to 25 µM |
| NC(=O)C(=O)C(Cc1ccccc1)NC(=O)c1cn(C(F)(F)F)nc1-c1ccccc1 (stereo not drawn) [Compound 489, N-(4-amino-3,4-dioxo-1-phenylbutan-2-yl)-3-phenyl-1-(trifluoromethyl)-1H-pyrazole-4-carboxamide] | < 3 µM | 10 to 25 µM | < 3 µM | < 3 µM | 10 to 25 µM |
| Cc1noc(-c2ccccc2)c1C(=O)N[C@@H](Cc1ccc(O)cc1)C(=O)C(N)=O [Compound 492, (S)—N-(4-amino-1-(4-hydroxyphenyl)-3,4-dioxobutan-2-yl)-3-methyl-5-phenylisoxazole-4-carboxamide] | < 3 µM | > 25 µM | < 3 µM | < 3 µM | 10 to 25 µM |
| Cc1cc(C(=O)NC(Cc2ccccc2)C(=O)C(N)=O)n(-c2ccc(CNC(=O)c3ccc(F)cc3)cc2)n1 (stereo not drawn) [Compound 496, N-(4-amino-3,4-dioxo-1-phenylbutan-2-yl)-1-(4-((4-fluorobenzamido)methyl)phenyl)-3-methyl-1H-pyrazole-5-carboxamide] | < 3 µM | > 25 µM | < 3 µM | < 3 µM | 10 to 25 µM |

Results, then the molecule that gave them:

| IC50 [1] | IC50 [2] | IC50 [3] | IC50 [4] | IC50 [5] | SMILES |
| --- | --- | --- | --- | --- | --- |
| < 3 µM | 10 to 25 µM | < 3 µM | < 3 µM | 10 to 25 µM | CC(C)n1cc(C(=O)NC(Cc2ccccc2)C(=O)C(N)=O)c(-c2cccc(F)c2)n1 (stereo not drawn) [Compound 473, N-(4-amino-3,4-dioxo-1-phenylbutan-2-yl)-3-(3-fluorophenyl)-1-isopropyl-1H-pyrazole-4-carboxamide] |
| 3 to 10 µM | > 25 µM | 3 to 10 µM | < 3 µM | 10 to 25 µM | Cc1cc(C(=O)N[C@@H](Cc2ccccc2)C(=O)CF)n(-c2cnccn2)n1 [Compound 477, (S)—N-(4-fluoro-3-oxo-1-phenylbutan-2-yl)-3-methyl-1-(pyrazin-2-yl)-1H-pyrazole-5-carboxamide] |
| 3 to 10 µM | > 25 µM | < 3 µM | < 3 µM | > 25 µM | Cc1cc(C(=O)N[C@@H](Cc2ccccc2)C(=O)CF)n(-c2ccccn2)n1 [Compound 478, (S)—N-(4-fluoro-3-oxo-1-phenylbutan-2-yl)-3-methyl-1-(pyridin-2-yl)-1H-pyrazole-5-carboxamide] |
| < 3 µM | 10 to 25 µM | < 3 µM | < 3 µM | 10 to 25 µM | Cn1cc(C(=O)NC(Cc2ccccc2)C(=O)C(N)=O)c(-c2cccc(F)c2F)n1 (stereo not drawn) [Compound 480, N-(4-amino-3,4-dioxo-1-phenylbutan-2-yl)-3-(2,3-difluorophenyl)-1-methyl-1H-pyrazole-4-carboxamide] |
| < 3 µM | < 10 µM | < 3 µM | < 3 µM | 10 to 25 µM | Cn1cc(C(=O)NC(Cc2ccccc2)C(=O)C(N)=O)c(-c2c(F)cccc2F)n1 (stereo not drawn) [Compound 486, N-(4-amino-3,4-dioxo-1-phenylbutan-2-yl)-3-(2,6-difluorophenyl)-1-methyl-1H-pyrazole-4-carboxamide] |
| < 3 µM | < 10 µM | < 3 µM | < 3 µM | 10 to 25 µM | NC(=O)C(=O)C(Cc1ccccc1)NC(=O)c1cc(Br)nn1-c1ncccn1 (stereo not drawn) [Compound 497, N-(4-amino-3,4-dioxo-1-phenylbutan-2-yl)-3-bromo-1-(pyrimidin-2-yl)-1H-pyrazole-5-carb oxamide] |

— US11339130B1 (Blade Therapeutics, Inc., priority 2016, dated 2022)
